The values that follow come from patent publication US11584714B2 (priority 2018, dated 2023).

Where a name gives a salt, the structure may show the parent alone. Read-outs that look alike come from different tables or passages of the source.

Format in all cases: biochemical
The target in one test is mMASP-2 (Mus musculus (Mouse), UniProt Q91WP0). The experiment in a line: Enzymatic inhibition of mMASP-2.
A further test deals with MASP-2 (CCP1-CCP2-SP) (Homo sapiens (Human), UniProt O00187). The experiment in a line: biochemical. As to conditions: for MASP-2 vs. thrombin selectivity: selectivity for MASP-2 inhibition versus thrombin.
MASP-2 (CCP1-CCP2-SP), sequence (O00187 445-686): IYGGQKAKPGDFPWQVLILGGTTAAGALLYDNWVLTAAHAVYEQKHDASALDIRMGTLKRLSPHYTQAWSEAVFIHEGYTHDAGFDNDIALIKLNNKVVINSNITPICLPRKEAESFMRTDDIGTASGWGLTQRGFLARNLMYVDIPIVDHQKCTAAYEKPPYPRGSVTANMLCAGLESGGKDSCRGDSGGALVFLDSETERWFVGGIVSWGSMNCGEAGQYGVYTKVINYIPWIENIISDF
In the next test the target is human α-thrombin (Homo sapiens (Human), UniProt P00734). The experiment in a line: Enzymatic assay for thrombin (Boc-VPR-AMC substrate).

mMASP-2, sequence (Q91WP0 20-685): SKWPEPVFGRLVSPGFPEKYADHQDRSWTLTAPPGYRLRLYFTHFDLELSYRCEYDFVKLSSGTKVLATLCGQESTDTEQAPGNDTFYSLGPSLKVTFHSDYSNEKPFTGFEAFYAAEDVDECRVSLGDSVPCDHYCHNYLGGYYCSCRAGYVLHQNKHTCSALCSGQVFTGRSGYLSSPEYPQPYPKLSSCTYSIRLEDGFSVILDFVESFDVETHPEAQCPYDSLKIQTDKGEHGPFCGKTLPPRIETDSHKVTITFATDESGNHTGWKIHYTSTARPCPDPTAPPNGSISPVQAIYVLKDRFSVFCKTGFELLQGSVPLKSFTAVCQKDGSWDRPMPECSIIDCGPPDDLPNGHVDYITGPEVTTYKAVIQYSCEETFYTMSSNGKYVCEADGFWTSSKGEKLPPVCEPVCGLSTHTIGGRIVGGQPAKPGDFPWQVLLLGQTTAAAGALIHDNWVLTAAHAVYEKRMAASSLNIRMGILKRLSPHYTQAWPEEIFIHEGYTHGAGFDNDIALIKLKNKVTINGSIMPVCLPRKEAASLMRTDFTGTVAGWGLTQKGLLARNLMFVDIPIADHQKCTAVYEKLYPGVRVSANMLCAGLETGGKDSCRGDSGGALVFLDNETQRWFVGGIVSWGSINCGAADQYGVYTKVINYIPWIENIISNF

As for `C[C@H](NC(=O)[C@H]1C[C@H](c2ccccc2)CN1)C(=O)NCc1ccc(C(N)=O)nc1` [compound 1273, 5-(((S)-2-((2R,4R)-4-Phenylpyrrolidine-2-carboxamido)propanamido)methyl)picolinamide], the Ki at mMASP-2 (read-out: mMASP-2 Ki) is 10000 to 25000 nM; at MASP-2 (CCP1-CCP2-SP), 10 to 25 µM; on human α-thrombin (read-out: Thrombin Ki), greater than 25 µM.

In the case of `C[C@H](NC(=O)[C@H]1C[C@H](c2ccccc2)CN1)C(=O)NCc1cc(Cl)ccc1NS(C)(=O)=O` [compound 1274, (2R,4R)—N—((S)-1-((5-chloro-2-(methylsulfonamido)benzyl)amino)-1-oxopropan-2-yl)-4-phenylpyrrolidine-2-carboxamide], the Ki on mMASP-2 (read-out: mMASP-2 Ki) was 10000 to 25000 nM; on MASP-2 (CCP1-CCP2-SP), 2.5 to 10 µM; at human α-thrombin (read-out: Thrombin Ki), greater than 25 µM. Moreover, the “MASP-2 vs. thrombin selectivity” value at MASP-2 (CCP1-CCP2-SP) is on record as “** (≥5.0 to <25-fold)”.

For `C[C@H](NC(=O)[C@H](N)CCc1ccccc1)C(=O)NCc1cnc(N)c(Cl)c1` [compound 1275, (R)-2-Amino-N—((S)-1-(((6-amino-5-chloropyridin-3-yl)methyl)amino)-1-oxopropan-2-yl)-4-phenylbutanamide], the Ki is greater than 25000 nM on mMASP-2 (read-out: mMASP-2 Ki), 0.5 to 2.5 µM at MASP-2 (CCP1-CCP2-SP) and greater than 25 µM on human α-thrombin (read-out: Thrombin Ki). In addition, the “MASP-2 vs. thrombin selectivity” value on MASP-2 (CCP1-CCP2-SP) is reported as “*** (≥25 to <100-fold)”.

In the case of `C[C@H](NC(=O)[C@H]1C[C@@H](c2cccc(C(F)(F)F)c2)CN1)C(=O)NCc1ccc(C(=N)N)cc1` [compound 1276, (2R,4S)—N—((S)-1-((4-Carbamimidoylbenzyl)amino)-1-oxopropan-2-yl)-4-(3-(trifluoromethyl)phenyl)pyrrolidine-2-carboxamide], the Ki is less than 500 nM on mMASP-2 (read-out: mMASP-2 Ki), less than 0.5 µM at MASP-2 (CCP1-CCP2-SP) (read-out: MASP-2 Ki) and 0.5 to 2.5 µM on human α-thrombin (Thrombin Ki (μM)). For the same molecule, the “MASP-2 vs. thrombin selectivity” value on MASP-2 (CCP1-CCP2-SP) was “*** (≥25 to <100-fold)”.

Regarding `C[C@H](NC(=O)[C@H]1C[C@@H](c2cccc(CN)c2)CN1)C(=O)NCc1ccc(C(=N)N)cc1` [compound 1277, (2R,4S)-4-(3-(Aminomethyl)phenyl)-N-((S)-1-((4-carbamimidoylbenzyl)amino)-1-oxopropan-2-yl)pyrrolidine-2-carboxamide], the figures for the Ki at mMASP-2 (read-out: mMASP-2 Ki), at MASP-2 (CCP1-CCP2-SP) (read-out: MASP-2 Ki) and on human α-thrombin (read-out: Thrombin Ki) were less than 500 nM, less than 0.5 µM and less than 0.5 µM, respectively. Besides, the “MASP-2 vs. thrombin selectivity” value at MASP-2 (CCP1-CCP2-SP) was “** (≥5.0 to <25-fold)”.

For the molecule `C[C@H](NC(=O)[C@H]1C[C@@H](c2cccc(C#N)c2)CN1)C(=O)NCc1ccc(C(=N)N)cc1` [compound 1278, (2R,4S)—N—((S)-1-((4-Carbamimidoylbenzyl)amino)-1-oxopropan-2-yl)-4-(3-cyanophenyl)pyrrolidine-2-carboxamide], the values for the Ki at mMASP-2 (read-out: mMASP-2 Ki), on MASP-2 (CCP1-CCP2-SP) (read-out: MASP-2 Ki) and on human α-thrombin (Thrombin Ki (μM)) were less than 500 nM, less than 0.5 µM and 2.5 to 10 µM, respectively. The “MASP-2 vs. thrombin selectivity” value at MASP-2 (CCP1-CCP2-SP) was “*** (≥25 to <100-fold)”.

Consider `C[C@H](NC(=O)[C@H](N)CCc1ccccc1)C(=O)NCc1cc(Br)ccc1O` [compound 1279, (R)-2-amino-N—((S)-1-((5-bromo-2-hydroxybenzyl)amino)-1-oxopropan-2-yl)-4-phenylbutanamide], for which the inhibition constant Ki on mMASP-2 (read-out: mMASP-2 Ki) was greater than 25000 nM; at MASP-2 (CCP1-CCP2-SP), 0.5 to 2.5 µM; at human α-thrombin (Thrombin Ki (μM)), 2.5 to 10 µM. In addition, at MASP-2 (CCP1-CCP2-SP), the “MASP-2 vs. thrombin selectivity” value was “** (≥5.0 to <25-fold)”.

For the molecule `C[C@H](NC(=O)[C@H](N)CCc1ccccc1)C(=O)NCc1ccc(CN)nc1` [compound 1280, (R)-2-Amino-N—((S)-1-(((6-(aminomethyl)pyridin-3-yl)methyl)amino)-1-oxopropan-2-yl)-4-phenylbutanamide], the Ki at mMASP-2 (read-out: mMASP-2 Ki) was 10000 to 25000 nM; on MASP-2 (CCP1-CCP2-SP), 2.5 to 10 µM; on human α-thrombin (read-out: Thrombin Ki) it was greater than 25 µM.

As for `C[C@H](NC(=O)[C@H]1C[C@H](c2ccccc2)CN1)C(=O)NCC1CCc2nc(N)sc2C1` (stereo partly drawn) [compound 1281, (2R,4R)—N-((2S)-1-(((2-Amino-4,5,6,7-tetrahydrobenzo[d]thiazol-6-yl)methyl)amino)-1-oxopropan-2-yl)-4-phenylpyrrolidine-2-carboxamide], the Ki at mMASP-2 (read-out: mMASP-2 Ki) is greater than 25000 nM; on MASP-2 (CCP1-CCP2-SP), 2.5 to 10 µM; at human α-thrombin (read-out: Thrombin Ki), greater than 25 µM.

Regarding `Cc1nc(N)ccc1CNC(=O)[C@H](C)NC(=O)[C@@H]1C[C@@H](Cc2ccccc2)CN1` [compound 1282, (2S,4R)—N—((S)-1-(((6-Amino-2-methylpyridin-3-yl)methyl)amino)-1-oxopropan-2-yl)-4-benzylpyrrolidine-2-carboxamide], the results for the Ki at mMASP-2 (read-out: mMASP-2 Ki), on MASP-2 (CCP1-CCP2-SP) and on human α-thrombin (read-out: Thrombin Ki) were greater than 25000 nM, 10 to 25 µM and greater than 25 µM, respectively.

`Cc1nc(N)ccc1CNC(=O)[C@H](C)NC(=O)[C@H]1C[C@@H](Cc2ccccc2)CN1` [compound 1283, (2R,4R)—N—((S)-1-(((6-Amino-2-methylpyridin-3-yl)methyl)amino)-1-oxopropan-2-yl)-4-benzylpyrrolidine-2-carboxamide]: the Ki at mMASP-2 (read-out: mMASP-2 Ki) was 500 to 2500 nM; on MASP-2 (CCP1-CCP2-SP) (read-out: MASP-2 Ki), less than 0.5 µM; at human α-thrombin (Thrombin Ki (μM)), 2.5 to 10 µM. For the same molecule, at MASP-2 (CCP1-CCP2-SP), the “MASP-2 vs. thrombin selectivity” value was “*** (≥25 to <100-fold)”.

In the case of `C[C@H](NC(=O)[C@H]1C[C@@H](Cc2ccccc2)CN1)C(=O)NCc1ccc(C(=N)N)cc1` [compound 1284, (2R,4R)-4-Benzyl-N-((S)-1-((4-carbamimidoylbenzyl)amino)-1-oxopropan-2-yl)pyrrolidine-2-carboxamide], the figures for the inhibition constant Ki on mMASP-2 (read-out: mMASP-2 Ki), on MASP-2 (CCP1-CCP2-SP) (read-out: MASP-2 Ki) and on human α-thrombin (read-out: Thrombin Ki) were less than 500 nM, less than 0.5 µM and less than 0.5 µM, respectively. Moreover, the “MASP-2 vs. thrombin selectivity” value at MASP-2 (CCP1-CCP2-SP) is “* (≥1.0 to <5.0-fold)”.

For `C[C@H](NC(=O)[C@@H]1C[C@@H](Cc2ccccc2)CN1)C(=O)NCc1ccc(C(=N)N)cc1` [compound 1285, (2S,4R)-4-Benzyl-N-((S)-1-((4-carbamimidoylbenzyl)amino)-1-oxopropan-2-yl)pyrrolidine-2-carboxamide], the Ki on mMASP-2 (read-out: mMASP-2 Ki) lay within 500 to 2500 nM; on MASP-2 (CCP1-CCP2-SP) it was 0.5 to 2.5 µM; at human α-thrombin (Thrombin Ki (μM)), 2.5 to 10 µM. For the same molecule, the “MASP-2 vs. thrombin selectivity” value at MASP-2 (CCP1-CCP2-SP) is “** (≥5.0 to <25-fold)”.

As to `C[C@H](NC(=O)c1nc(-c2ccccc2)cs1)C(=O)NCc1ccc(C(=N)N)cc1` [compound 1286, (S)—N-(1-((4-Carbamimidoylbenzyl)amino)-1-oxopropan-2-yl)-4-phenylthiazole-2-carboxamide], the Ki on mMASP-2 (read-out: mMASP-2 Ki) is less than 500 nM; at MASP-2 (CCP1-CCP2-SP) it was 2.5 to 10 µM; at human α-thrombin (Thrombin Ki (μM)), 0.5 to 2.5 µM. Also, at MASP-2 (CCP1-CCP2-SP), the “MASP-2 vs. thrombin selectivity” value is listed as “−− (<1.0-fold)”.

With `C[C@H](NC(=O)[C@H](N)CCc1ccccc1)C(=O)NCc1cc(Cl)ccc1CO` [compound 1287, (R)-2-amino-N—((S)-1-((5-Chloro-2-(hydroxymethyl)benzyl)amino)-1-oxopropan-2-yl)-4-phenylbutanamide], the Ki is greater than 25000 nM at mMASP-2 (read-out: mMASP-2 Ki), 10 to 25 µM at MASP-2 (CCP1-CCP2-SP) and greater than 25 µM at human α-thrombin (read-out: Thrombin Ki).

As to `C[C@H](NC(=O)[C@H]1C[C@H](c2ccccc2)CN1)C(=O)NCc1ccc(C(=N)NC(=O)OCC(Cl)(Cl)Cl)cc1` [compound 1288, 2,2,2-Trichloroethyl (imino(4-(((S)-2-((2R,4R)-4-phenylpyrrolidine-2-carboxamido)propanamido)methyl)phenyl)methyl)carbamate], the Ki on mMASP-2 is 2500 to 10000 nM; at MASP-2 (CCP1-CCP2-SP) (MASP-2 Ki (μM)), 2.5 to 10 µM; on human α-thrombin (read-out: Thrombin Ki), greater than 25 µM.

Consider `CC[C@H](NC(=O)[C@H](N)CCc1ccccc1)C(=O)NCc1ccc(C(=N)N)cc1` [compound 1289, (R)-2-Amino-N—((S)-1-((4-carbamimidoylbenzyl)amino)-1-oxobutan-2-yl)-4-phenylbutanamide], for which the Ki on mMASP-2 (read-out: mMASP-2 Ki) is less than 500 nM; on MASP-2 (CCP1-CCP2-SP) (read-out: MASP-2 Ki), less than 0.5 µM; on human α-thrombin (read-out: Thrombin Ki) it was less than 0.5 µM. In addition, on MASP-2 (CCP1-CCP2-SP), the “MASP-2 vs. thrombin selectivity” value is “−− (<1.0-fold)”.

On to `CC[C@H](NC(=O)[C@H]1C[C@H](c2ccccc2)CN1)C(=O)NCc1ccc(C(=N)N)cc1` [compound 1290, (2R,4R)—N—((S)-1-((4-carbamimidoylbenzyl)amino)-1-oxobutan-2-yl)-4-phenylpyrrolidine-2-carboxamide], for which the Ki on mMASP-2 (read-out: mMASP-2 Ki) is less than 500 nM; on MASP-2 (CCP1-CCP2-SP) (read-out: MASP-2 Ki), less than 0.5 µM; on human α-thrombin (Thrombin Ki (μM)), 0.5 to 2.5 µM. In addition, the “MASP-2 vs. thrombin selectivity” value at MASP-2 (CCP1-CCP2-SP) is on record as “** (≥5.0 to <25-fold)”.

Turning to `CC(C)COC(=O)NC(=N)c1ccc(CNC(=O)[C@H](C)NC(=O)[C@H]2C[C@H](c3ccccc3)CN2)cc1` [compound 1293, Isobutyl (imino(4-(((S)-2-((2R,4R)-4-phenylpyrrolidine-2-carboxamido)propanamido)methyl)phenyl)methyl)carbamate], the Ki is 2500 to 10000 nM at mMASP-2 (read-out: mMASP-2 Ki), 2.5 to 10 µM on MASP-2 (CCP1-CCP2-SP) and greater than 25 µM on human α-thrombin (read-out: Thrombin Ki). The “MASP-2 vs. thrombin selectivity” value at MASP-2 (CCP1-CCP2-SP) is on record as “* (≥1.0 to <5.0-fold)”.

Consider `C[C@H](NC(=O)c1cc(-c2ccccc2)n[nH]1)C(=O)NCc1ccc(C(=N)N)cc1` [compound 1295, (S)—N-(1-((4-Carbamimidoylbenzyl)amino)-1-oxopropan-2-yl)-3-phenyl-1H-pyrazole-5-carboxamide], for which the values for the Ki on mMASP-2 (read-out: mMASP-2 Ki), on MASP-2 (CCP1-CCP2-SP) (read-out: MASP-2 Ki) and on human α-thrombin (Thrombin Ki (μM)) were less than 500 nM, less than 0.5 µM and 2.5 to 10 µM, respectively. Moreover, the “MASP-2 vs. thrombin selectivity” value on MASP-2 (CCP1-CCP2-SP) is “*** (≥25 to <100-fold)”.

Regarding `C[C@H](NC(=O)[C@H](N)CCc1ccccc1)C(=O)NCc1ccnc(N)c1` [compound 1296, (R)-2-Amino-N—((S)-1-(((2-aminopyridin-4-yl)methyl)amino)-1-oxopropan-2-yl)-4-phenylbutanamide Dihydrochloride], the Ki is greater than 25000 nM at mMASP-2 (read-out: mMASP-2 Ki), 2.5 to 10 µM at MASP-2 (CCP1-CCP2-SP) and greater than 25 µM at human α-thrombin (read-out: Thrombin Ki). At MASP-2 (CCP1-CCP2-SP), the “MASP-2 vs. thrombin selectivity” value is “** (≥5.0 to <25-fold)”.

`Cc1cc(Cl)cc(CNC(=O)[C@H](C)NC(=O)[C@H]2C[C@H](c3ccccc3)CN2)c1O` [compound 1298, (2R,4R)—N—((S)-1-((5-chloro-2-hydroxy-3-methylbenzyl)amino)-1-oxopropan-2-yl)-4-phenylpyrrolidine-2-carboxamide Hydrochloride]: the Ki on mMASP-2 (read-out: mMASP-2 Ki) was 2500 to 10000 nM; on MASP-2 (CCP1-CCP2-SP) (read-out: MASP-2 Ki), less than 0.5 µM; on human α-thrombin (read-out: Thrombin Ki), greater than 25 µM.
